According to patent US10351596B2, “γ-AA-peptide STAT3/DNA inhibitors and methods of use” (H. Lee Moffitt Cancer Center and Research Institute, Inc., priority 2014, dated 2019):

Tested on: STAT3 phosphorylation and STAT3 regulated genes (survivin, cyclin D1)
Experiment: Western immunoblotting of MDA-MB-468 cells (P-STAT3, survivin, cyclin D1)
Assay type: cell-based, human
Settings: 100 μM overnight, Western blot
Method: To assess the ability of lead γ-AA peptides to modulate the expression of STAT3 regulated genes, Western immunoblotting was carried out to determine the effect of γ-AA peptides on the expression levels of survivin and cyclin D1. Briefly, Western blots were prepared using cells that were harvested and lysed for 30 min on ice with occasional vortexing in 150 mM Hepes, pH 7.5, 150 mM NaCl, 1 mM EDTA, 0.5% NP-40, 10% glycerol, 5 mM NaF, 1 mM DTT, 1 mM PMSF, 2 mM Na3VO4, and 5 μg/ml leupeptin. Proteins readings were done using the Bradford protein assay, and equal amounts of protein for each sample were loaded into the wells of SDS-PAGE gels. After separation, proteins were transferred to nitrocellulose and Western blots were performed as previously described (Zhang, et al., A Novel Inhibitor of STAT3 Homodimerization Selectively Suppresses STAT3 Activity and Malignant Transformation. Cancer Research 2013, 73, 1922-1933).

S3I-1757
STAT3 phosphorylation (P-STAT3): blocked STAT3 phosphorylation
